In ChEMBL document CHEMBL4825726, “Structural insights in galectin-1-glycan recognition: Relevance of the glycosidic linkage and the N-acetylation pattern of sugar moieties” (Bioorg Med Chem, 2021):
pIC50, pKd: −log10 of the molar value.

How the values were obtained:
Galectin-1 [1] = target: T1, Galectin-1 (Homo sapiens, UniProt P09382); test: Binding affinity to human Gal-1 assessed as Gibbs free energy change by isothermal titration calorimetry
Galectin-1 [2] = target: T1, Galectin-1; test: Binding affinity to human Gal-1 assessed as inhibition of Gal-1 binding to immobilized asialofetuin pretreated with Gal-1 for 2 hrs followed by incubation with asialofetuin for 2 hrs by competitive solid phase assay; conditions: for pIC50: read-out: IC50
Galectin-1 [3] = target: T1, Galectin-1; test: Binding affinity to human Gal-1 assessed as change in enthalpy by isothermal titration calorimetry
Galectin-1 [4] = target: T1, Galectin-1; test: Binding affinity to human Gal-1 assessed as change in entropy by isothermal titration calorimetry
Galectin-1 [5] = target: T1, Galectin-1; test: Binding affinity to human Gal-1 assessed as dissociation constant by isothermal titration calorimetry
Galectin-1 [6] = target: T1, Galectin-1; test: Binding affinity to human Gal-1 assessed as inhibition of Gal-1 binding to immobilized asialofetuin pretreated with Gal-1 for 2 hrs followed by incubation with asialofetuin for 2 hrs by competitive solid phase assay relative to lactose; conditions: time 4.0 hrs

T1 sequence (P09382 whole entry): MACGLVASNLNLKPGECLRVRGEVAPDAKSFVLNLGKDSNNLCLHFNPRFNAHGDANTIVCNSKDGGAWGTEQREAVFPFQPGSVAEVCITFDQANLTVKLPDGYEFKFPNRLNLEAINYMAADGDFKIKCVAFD

Row | Compound | deltaG (Galectin-1 [1]) | IC50 (Galectin-1 [2]) | deltaH (Galectin-1 [3]) | -TdeltaS (Galectin-1 [4]) | pKd (Galectin-1 [5]) | pIC50 (Galectin-1 [2]) | Ratio (Galectin-1 [6]) | deltaS (Galectin-1 [4])
1 | CC(=O)N[C@H]1C(O)O[C@H](CO)[C@@H](O[C@@H]2O[C@H](CO)[C@H](O)[C@H](O)[C@H]2O)[C@@H]1O (stereo partly specified) | -5.47 kcal/mol |  | -12 kcal/mol | 6.55 kcal/mol | 4.02 | 2.71 | 2.37 | -91.9 J/mol.K
2 | CC(=O)N[C@H]1C(O)O[C@H](CO)[C@@H](O)[C@@H]1O[C@@H]1O[C@H](CO)[C@H](O)[C@H](O)[C@H]1O (stereo partly specified) | -5.19 kcal/mol |  | -11.4 kcal/mol | 6.21 kcal/mol | 3.79 | 2.69 | 2.37 | -87.2 J/mol.K
3 | CC(=O)N[C@H]1[C@H](O[C@H]2[C@H](O)[C@@H](NC(C)=O)C(O)O[C@@H]2CO)O[C@H](CO[C@@H]2O[C@H](CO)[C@H](O)[C@H](O)[C@H]2O)[C@@H](O)[C@@H]1O (stereo partly specified) | -4.25 kcal/mol |  | -3.66 kcal/mol | -0.598 kcal/mol | 3.11 | 1.67 | 0.22 | 8.4 J/mol.K
4 | OC[C@H]1O[C@@H](O[C@H]2[C@H](O)[C@@H](O)C(O)O[C@@H]2CO)[C@H](O)[C@@H](O)[C@H]1O (stereo partly specified) |  |  | -10.8 kcal/mol | 5.71 kcal/mol |  |  |  | -80.2 J/mol.K

Continued, values first:

Row | deltaG (Galectin-1 [1]) | IC50 (Galectin-1 [2]) | deltaH (Galectin-1 [3]) | -TdeltaS (Galectin-1 [4]) | pKd (Galectin-1 [5]) | pIC50 (Galectin-1 [2]) | Ratio (Galectin-1 [6]) | deltaS (Galectin-1 [4]) | Compound
5 | -3.92 kcal/mol | Not Active | -1.79 kcal/mol | -2.13 kcal/mol | 2.88 |  |  |  | OC[C@H]1O[C@@H](OC[C@H]2OC(O)[C@H](O)[C@@H](O)[C@@H]2O)[C@H](O)[C@@H](O)[C@H]1O (stereo partly specified)
6 | -4.49 kcal/mol |  | -4.28 kcal/mol | -0.215 kcal/mol | 3.30 | 1.89 | 0.36 | 3 J/mol.K | CC(=O)N[C@H]1C(O)O[C@H](CO[C@@H]2O[C@H](CO)[C@H](O)[C@H](O)[C@H]2O)[C@@H](O)[C@@H]1O (stereo partly specified)
